Tests used:
[1] = Assessment of the odor profile on smelling strips by panellists, compared to methyl salicylate; conditions: for Odor description: compound @10 wt % in polyethylene glycol, freshly dipped on smelling strips, compared to methyl salicylate; for odor profile compared to methyl salicylate (summary statement) / sweet aspect of odor profile: general statement in description
Method: A 10 wt % solution of the purified samples of Example 1 were prepared (compound @10 wt % in polyethylene glycol). The odor profile was assessed freshly dipped on smelling strips.
Panellists have been asked to provide an odor description as compared to methyl salicylate.

[2] = GC-odor threshold concentration (gas chromatograph with sniff port, panel of trained evaluators); conditions: for odor threshold concentration compared to methyl salicylate and other methyl-fluoro-hydroxybenzoates (in words): general statement in description; for odor threshold concentration (relative): relative values, identical conditions, GC sniff port
Method: Definition: The odour threshold concentration is defined as the lowest concentration of the vapour of an odorant material in the air which can be detected by smell and can be measured by standard methods known in the art.
According to standard procedures known to the person skilled in the art, threshold concentrations for volatile perfumery compounds are determined on a gas chromatograph equipped with a sniff port by a panel of trained evaluators. The lowest concentration smelled by each panelist is recorded as the individual threshold concentration expressed in ng (absolute amount of compound delivered at the sniff port).
Under identical conditions the odor threshold concentration for […]

[3] = Light floral cologne accord, replacement of 4 parts DPG; conditions: 4 parts DPG of 1000 replaced by the compound
Text: The accord above represents a light floral cologne accord, suitable for fine perfumery at a dosage of e.g. 5 weight %.
Without methyl salicylate, the accord lacks initial freshness and neutrality on the top note.
Thus an accord was obtained which compensates the effects normally achieved by the presence of methyl salicylate, thus a useful compensation of methyl salicylate is obtained.

[4] = Replacement of methyl salicylate in wintergreen flavor formulation for mouthwash; conditions: 20 parts methyl salicylate replaced by 0.2 parts compound and 19.8 parts PG
Text: The formulation above is a typical wintergreen type flavor suitable for the use in mouthwash products, at a dosage of, e.g. 0.3 wt %.

[5] = Replacement of methyl salicylate in wintergreen flavor formulation for toothpaste; conditions: 20 parts methyl salicylate replaced by 0.2 parts compound and 19.8 parts PG
Text: The formulation above is a typical wintergreen type flavor suitable for the use in toothpaste products, at a dosage of, e.g. 1.2 wt %.

## COC(=O)c1c(O)cccc1F [methyl 2-fluoro-6-hydroxybenzoate]
[1]
  Odor description: Sweetness, elements of wintergreen,
  odor profile compared to methyl salicylate (summary statement): very similar to methyl salicylate
  sweet aspect of odor profile: possessing these sweet aspect
[2]
  odor threshold concentration compared to methyl salicylate and other methyl-fluoro-hydroxybenzoates (in words): surprisingly low
  odor threshold concentration (relative): 1

## COC(=O)c1ccccc1O [methyl 2-hydroxybenzoate, reference compound]
[3]
  olfactory effect on accord: helps to reinforce the fresh, transparent, natural top note
[2]
  odor threshold concentration (relative): 22

## COC(=O)c1cccc(F)c1O [methyl 3-fluoro-2-hydroxybenzoate, reference compound]
[1]
  Odor description: Medicinal note, technical
[2]
  odor threshold concentration (relative): 42

## COC(=O)c1ccc(F)cc1O [methyl 4-fluoro-2-hydroxybenzoate]
[1]
  Odor description: Wintergreen, typical methyl salicylate
  odor profile compared to methyl salicylate (summary statement): very similar to methyl salicylate
  sweet aspect of odor profile: possessing these sweet aspect
[4]
  flavor profile after replacement of methyl salicylate: profile with very similar characteristics
[3]
  olfactory effect on accord: fresh and green natural effect on the top note
[2]
  odor threshold concentration compared to methyl salicylate and other methyl-fluoro-hydroxybenzoates (in words): surprisingly low
  odor threshold concentration (relative): 4
[2]; versus methyl 3-fluoro-2-hydroxybenzoate
  odor threshold concentration, times lower than methyl 3-fluoro-2-hydroxybenzoate: more than 10 times
[2]; versus methyl salicylate
  odor threshold concentration, times lower than methyl salicylate: more than 5 times
[5]
  flavor profile after replacement of methyl salicylate: profile with very similar characteristics

## COC(=O)c1cc(F)ccc1O [methyl 5-fluoro-2-hydroxybenzoate, reference compound]
[1]
  Odor description: less sweetness, methyl salicylate character
[2]
  odor threshold concentration (relative): 36
